≈ marks a conversion by molar mass, not a printed value. Positions of bridges follow the written chain, without caps; N, C: chain ends. Residues, ends and D or L forms follow the SMILES beside them.
Columns and labels:
[1] = 25% human serum in PBS (pH 7.4) from healthy donor; settings: 37 °C, up to 24 h
[2] = system: Gram-negative bacteria; test: Geometric mean of MICs, Gram-negative panel; type: cell-based; settings: geometric mean (GM) of MICs against the 14 Gram-negative strains of Figure 2
Method: (§1) The antimicrobial activity of the peptides was determined via the method of two-fold serial dilutions in sterile 96-well flat-bottom polystyrene microplates (Eppendorf #0030730011) in Mueller–Hinton broth (MHB, Sigma, Kawasaki, Kanagawa, Japan) supplemented with 0.9% NaCl. Bacterial cultures were grown in MHB at 37 °C until the culture reached an optical density OD600 of 1.0 and diluted with the broth so that to reach a final cell concentration of 10^6 CFU/mL. Then 50 μL of the test culture were added to 50 μL of aqueous solutions of the peptides, previously diluted in 0.1% sterilized bovine serum albumin (BSA) to reduce non-specific binding of the peptides to the surface of the plates. Next, the plate was incubated for 24 h at 37 °C and 950 rpm on the plate thermoshaker (Biosan). The values of the minimum inhibitory concentrations (MIC) were determined as the minimum concentration of the peptide, at which there is no culture growth. The results were expressed as the median values of three independent experiments performed in triplicate.

[3] = system: human red blood cells; type: cell-based
Method: Figure 4 (A) Hemolytic effect on human red blood cells after 2 h incubation (hemoglobin release assay). (B) Cytotoxicity toward transformed human embryonic kidney cells after 20 h incubation (MTT-assay). The positive control used was 0.1% Triton X-100 and sterile PBS as a negative control. Melittin was used as an additional positive control. The data are presented as the mean ± SD of three independent experiments.
The hemolytic activity of compounds was performed using human red blood cells (hRBS) of healthy donor. Fresh blood was centrifuged to separate the erythrocyte fraction for 15 min at 500 g and washed three times with cold phosphate-buffered saline (PBS) (pH 7.4), after which an 8% (v/v) suspension of erythrocytes in PBS was prepared. Then, 50 µL of erythrocyte suspension was added to the test peptides, previously were dissolved in 50 µL of 0.1% BSA. The plate was incubated for 1.5 h at 37 °C and 950 rpm on the plate thermoshaker. After incubation, the plates were centrifuged for 15 min at 1000 g to settle intact erythrocytes. Next, aliquots of the supernatant were transferred to another plate to measure the amount of hemoglobin release by the absorbance of the solution at 405 nm. As “zero lysis” we used the supernatant obtained after centrifugation of erythrocytes incubated in a PBS solution without the addition of a peptide. As “100% lysis”, we used the supernatant obtained after centrifugation of erythrocytes incubated in a 0.1% Triton X-100, causing their complete lysis. The assays were conducted three times. The quantitative data were presented as an average means with standard deviations. Hemolysis(%)=OD405(compound)−OD405(zerolysis)/OD405(100%lysis)−OD405(zerolysis)×100%

[4] = system: P. aeruginosa PAO1; test: Inhibition of biofilm formation, crystal violet; type: cell-based; settings: 24 h, LB, 32 °C
Excerpt: Such an adaptive and survival mechanism is mediated by biofilms, which constitutes the community of sessile bacteria embedded within the self-produced extracellular polymeric substance (EPS) that defends them from chemical, biological, and physical stress; it also […] foreign invaders. Besides the fact that EPS decreases concentration of antibiotics, bacteria inside biofilm are characterized by a reduced rate of cell divisions, an increased expression of stress response genes, an occurrence of persistent cells, and exchange of resistance genes leading to a broader spread of tolerant biofilm-growing bacteria. For the treatment of biofilm-associated infections a high concentration of antibiotics is required that also increases toxicity toward human cells. Antimicrobial peptides are able to act on certain stages of biofilm formation and various molecular targets and are considered as promising candidates for the development of new antibiofilm agents. […] Bacterial biomass amount was evaluated using the standard crystal violet assay over a 24 h incubation period with each drug. […]
Masses of biofilms were evaluated by dying with 0.1% CV. […]
The ability of peptides to influence the formation of biofilms was evaluated by the method of two-fold serial dilutions in a liquid nutrient medium. […] Further, the extracts were transferred to a new plate and absorption was measured at 570 nm. […]

[5] = RP-HPLC retention time as measure of hydrophobicity; type: physicochemical; settings: chromatographic, semipreparative RP-HPLC, C18 column, linear gradient 5 to 80% (v/v) acetonitrile in water with 0.1% TFA within 50 minutes; used as measure of hydrophobicity
Method: Table S1. Characteristics of the recombinant AMPs.
1 Mean Kyte–Doolittle hydrophobicity index (GRAVY) was calculated using the Expasy ProtParam tool. The maximum and minimum values of this index are +4.5 and -4.5 for poly-Ile and poly-Arg sequences, respectively. 2 Retention times were measured using semipreparative reversed-phase high-performance liquid chromatography (RP - HPLC) on a C18 column with a linear gradient from 5 to 80% ( v/v) acetonitrile in water containing 0.1% trifluoroacetic […]
acid (TFA) within 50 minutes. […]

[6] = system: E. coli ATCC 25922; test: Mice septicemia model, survival; settings: BALB/c mice, n = 8, E. coli ATCC 25922 i.p. with 2.5% mucin; peptide i.p. 10 mg/kg at 1 and 4 h post-infection; 7 days
Method: Ciprofloxacin (the single dose of 10 mg/kg) and saline were used as the positive and negative controls, respectively. […] Mice were controlled once daily for their health status during 7 post-infection days.
Then, we examined an efficacy of AMPs in the mice septicemia model using 8 animals in a group (Figure 10B).
Experiments were performed with female 8–10-week-old BALB/c mice (22–24 g, “Andreevka” laboratory animal nursery FMBA, Russia). […] All animal experiments were performed at the State Research Center for Applied Microbiology and Biotechnology (SRCAMB) in Obolensk, Russia. The animals were housed in groups of 5 in polycarbonate cages. Food and water were provided ad libitum.
A total of 4 groups with 8 animals were used. The first group received ciprofloxacin (Sigma, Kawasaki, Kanagawa, Japan) administered i.p. once (1 h post-infection) at a dose of 10 mg/kg. The second group received saline (as a vehicle control) administered i.p. once (1 h post-infection). […] Survival was monitored for 7 days. After that survived animals were euthanized by CO2 asphyxiation.

[7] = system: E. coli 3421/E19; test: Neutropenic mice peritonitis model; type: in vivo, BALB/c mice
Method: Immune-deficient mice were inoculated intraperitoneally (i.p.) with bacterial suspension. Antimicrobial agent was administered 1 h post-infection, and colony counts in blood and peritoneal fluid (PF) were determined 5 h later.
(A) The mice peritonitis model. […] Horizontal bars indicate means ± SD.
Food and water were provided ad libitum.
CFU counts were determined from blood and peritoneal fluid (PF) 5 h after treatment. The mice were euthanized by CO2 asphyxiation and blood was collected by axillary cut down. A total of 2 mL sterile saline was injected i.p. and the abdomen gently massaged before it was opened, fluid sampled with a pipette, serially diluted and placed on Endo agar supplemented with 20 µg/mL of tetracycline for CFU identification.

[8] = system: Gram-positive bacteria; type: cell-based; settings: 24 h
Method: as §1

[9] = system: P. aeruginosa PAO1 mature biofilms; test: Effect on mature biofilms, viability by MTT; settings: P. aeruginosa PAO1 pre-formed biofilm, 16 µM, 2-h exposure
Method: Biofilm viability was measured by tetrazolium salt reduction (right panel). Values are presented as means ± the standard deviation (SD) of three independent experiments.
The effect of peptides on pre-formed biofilms was evaluated as follows. Biofilms were grown on a 96-well plate at 32 °C for 24 h and stirred at 120 rpm to ensure biofilm formation primarily on the wall of the wells. […] Bacterial survival in the biofilms after 2-h exposure was evaluated via a MTT assay after incubation with a tested peptide. Then, wells were rinsed with sterile water, treated with an MTT solution (Sigma, Kawasaki, Kanagawa, Japan) in PBS, and incubated for 4 h at 37 °C. Next, the medium was removed. The resulting formazan crystals were dissolved in a mixture of EtOH and DMSO (1:1) for 10 min. The optical density of the solution was measured at 570 nm. Bacterial survival was calculated as percent relative to samples without antimicrobial agent. All data were obtained from at least three independent experiments in 3 repetitions.

[10] = system: E. coli ATCC 25922; type: cell-based; settings: MHB + 0.9% NaCl, 0.1% BSA, 24 h, 37 °C; median of three independent experiments
[11] = in vitro; settings: male, human, 25% fresh human serum, pH 7.4
Method: After incubation, serum proteins were selectively precipitated from the mixture by adding 10% TFA in the presence of 3 M urea. […] Two independent experiments in duplicate were performed for each peptide.

[12] = system: E. coli ML-35p
Method: Initially, antimicrobial activity of abarenicin and UuBRI-21 was evaluated against the reference strain of E. coli (ML-35p) under various conditions (Table 1). Minimal inhibitory concentrations (MICs) were determined via two-fold serial dilutions in 96-well polystyrene plates. Serial dilutions were made in 0.1% bovine serum albumin (BSA) to minimize the absorption of peptides on the surface of plate wells. Mueller–Hinton broth (MHB) supplemented with 0.9% NaCl was used as the standardized medium.
as §1, with “Bacterial” for “The antimicrobial activity of the peptides was determined via the method of two-fold serial dilutions in sterile 96-well flat-bottom polystyrene microplates (Eppendorf #0030730011) in Mueller–Hinton broth (MHB, Sigma, Kawasaki, Kanagawa, Japan) supplemented with 0.9% NaCl. Bacterial”

Compound | cleaved bond [1] | Minimum inhibitory concentration (MIC): Gram-negative Geometric mean [2] [µM] | Hemolytic activity (in words) [3] | Inhibition of biofilm formation (in words) [4] | RP-HPLC Retention Time [5] [min] | Therapeutic efficacy (survival) after one-week experiment [6] [%] | Bacterial burden in mice blood (in words) ([7]; neutropenic BALB/c mice, n = 5, i.p. infection, single i.v. dose 1 h post-infection (AMPs 10 mg/kg, polymyxin B 5 mg/kg), CFU 5 h after treatment) | Reduction of the CFU level in peritoneal fluid (PF) ([7]; neutropenic BALB/c mice, n = 5, single i.v. dose (AMPs 10 mg/kg, polymyxin B 5 mg/kg), CFU 5 h after treatment) | Efficacy in the neutropenic peritonitis model (in words) ([7]; single i.v. dose of 10 mg/kg, E. coli 3421/E19) | Minimum inhibitory concentration (MIC): Gram-positive Geometric mean [8] [µM] | Residual viability of bacteria in mature biofilm [9] | Minimum inhibitory concentration (MIC): E. coli ATCC 25922 [10] [µM] | remaining at 2 h, 0.12 mg/mL [11] [%] | Fold reduction of antibacterial activity in the presence of serum ([12]; MHB + 0.9% NaCl with 25% FBS versus without) [fold] | Minimum Inhibitory Concentration, MHB + 0.9% NaCl + 25% FBS ([12]; Table 1, medium with 25% fetal bovine serum) [µM] | Minimum Inhibitory Concentration, MHB + 0.9% NaCl ([12]; Table 1, without FBS, dilutions in 0.1% BSA) [µM]
GYCFTACYLRNGVRICYRRCN | glycine-Y, major | – | – | – | – | – | – | – | – | – | – | – | – | – | – | –
CC[C@H](C)[C@@H]1NC(=O)[C@H](CCCNC(=N)N)NC(=O)[C@H](C(C)C)NC(=O)CNC(=O)[C@H](CC(N)=O)NC(=O)[C@H](CCCNC(=N)N)NC(=O)[C@H](CCCNC(=N)N)NC(=O)[C@H](C)NC(=O)[C@@H]2CSSC[C@H](NC1=O)C(=O)N[C@@H](Cc1ccc(O)cc1)C(=O)N[C@@H](CCCNC(=N)N)C(=O)N[C@@H](CCCNC(=N)N)C(=O)N[C@H](C(=O)N[C@@H](CC(N)=O)C(=O)O)CSSC[C@H](NC(=O)[C@H](Cc1ccc(O)cc1)NC(=O)CN)C(=O)N[C@@H](Cc1ccccc1)C(=O)N[C@@H]([C@@H](C)O)C(=O)N[C@@H](C)C(=O)N2 [Ap9] | – | 0.26 (≈ 0.645 µg/mL) | insignificant toxicity toward human erythrocytes | more effective in biofilm prevention at sub-inhibitory concentration | 25.37 | 100 | complete reduction | ~ 5 log | effective | 3.17 (≈ 7.86 µg/mL) | about 20% | – | – | – | – | –
CC[C@H](C)[C@@H]1NC(=O)[C@H](CCCNC(=N)N)NC(=O)[C@H](C(C)C)NC(=O)CNC(=O)[C@H](CC(N)=O)NC(=O)[C@H](CCCNC(=N)N)NC(=O)[C@H](CC(C)C)NC(=O)[C@H](Cc2ccc(O)cc2)NC(=O)[C@@H]2CSSC[C@H](NC1=O)C(=O)N[C@@H](Cc1ccc(O)cc1)C(=O)N[C@@H](CCCNC(=N)N)C(=O)N[C@@H](CCCNC(=N)N)C(=O)N[C@H](C(=O)N[C@@H](CC(N)=O)C(=O)O)CSSC[C@H](NC(=O)[C@H](Cc1ccc(O)cc1)NC(=O)CN)C(=O)N[C@@H](Cc1ccccc1)C(=O)N[C@@H]([C@@H](C)O)C(=O)N[C@@H](C)C(=O)N2 [Abarenicin] (H-GYCFTACYLRNGVRICYRRCN-OH; disulfide 3-20, 7-16) | – | 0.45 (≈ 1.14 µg/mL) | moderate hemolytic activity | – | 25.77 | – | – | – | – | 2.52 (≈ 6.37 µg/mL) | – | 0.25 | > 90 | 4 | 1 | 0.25

From article PMC9410094 (Marine Drugs, 2022)
